Results as given in ChEMBL document CHEMBL4325834, “De Novo Molecular Design of a Novel Octapeptide That Inhibits In Vivo Melanogenesis and Has Great Transdermal Ability” (J Med Chem, 2018).
The source made the active and inactive calls. No cut-off for these calls is given here. Where a SMILES comes first, the peptide text is derived from it.

Assays:
Mus musculus = species on record: Mus musculus; experiment: Effect on ERK phosphorylation in mouse B16 cells up to 80 uM after 72 hrs by Western blot analysis; format: cell-based
LAD2 [1] = experiment: (§1) Proinflammatory activity in human LAD2 cells assessed as increase in mast-cell degranulation by measuring beta-hexosaminidase release at 0.25 mM preincubated for 30 mins followed 4-nitrophenyl-N-acetyl-beta-D-glucosaminide substrate addition and measured after 90 mins by fluorescence-based microplate reader analysis relative to control; format: ADME; settings: lad2, 1.5 h, 250 µM
Cavia porcellus [2] = experiment: Anti-melanogenic activity in UVB-induced pigmentation Dunkin-Hartley guinea pig model assessed as inhibition of UV-induced melanin production in epidermis basal layer at 1 to 2 mM administered topically using PG solvent 6 hrs before UV radiation every day for 2 weeks by Fontana-Masson-staining based assay; format: functional, organism-based
[3] = biological target: T1, Tyrosinase (Mus musculus) (UniProt P11344); experiment: Inhibition of TYR activity in mouse B16 cells assessed as effect on pallet after exfoliation at 20 uM preincubated for 72 hrs followed L-dopa substrate addition and measured after 4 hrs by fluorescence microscopy; format: cell-based
T1 sequence (whole entry): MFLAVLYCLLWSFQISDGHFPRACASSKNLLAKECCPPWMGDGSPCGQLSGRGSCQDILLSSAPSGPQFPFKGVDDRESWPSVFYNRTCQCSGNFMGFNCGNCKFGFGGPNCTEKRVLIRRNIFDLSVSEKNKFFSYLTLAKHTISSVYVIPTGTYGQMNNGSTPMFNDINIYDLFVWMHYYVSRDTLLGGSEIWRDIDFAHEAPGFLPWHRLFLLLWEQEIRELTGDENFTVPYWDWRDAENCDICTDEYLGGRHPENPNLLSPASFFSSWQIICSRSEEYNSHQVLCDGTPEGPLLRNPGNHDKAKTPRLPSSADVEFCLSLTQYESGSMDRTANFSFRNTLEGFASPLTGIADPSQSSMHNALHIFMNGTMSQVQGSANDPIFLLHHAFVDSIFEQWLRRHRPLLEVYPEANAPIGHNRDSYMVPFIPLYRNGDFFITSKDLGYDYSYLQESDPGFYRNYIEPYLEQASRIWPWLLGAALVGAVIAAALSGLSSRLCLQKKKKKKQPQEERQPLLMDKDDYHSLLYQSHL

[4] = biological target: MAP kinase p38 (Mus musculus) (UniProt P47811+O08911+Q9WUI1+Q9Z1B7); experiment: Effect on p38 phosphorylation in mouse B16 cells up to 80 uM after 72 hrs by Western blot analysis; format: cell-based
Cavia porcellus [5] = experiment: Prophylactic protection against UVB-induced pigmentation in Dunkin-Hartley guinea pig pigmentation model assessed as increase in whitening administered topically 6 hrs before UV radiation every day for 2 weeks; format: functional, organism-based
[6] = biological target: T1, Tyrosinase (Mus musculus); experiment: Inhibition of TYR activity in mouse B16 cells assessed as reduction in melanin levels at 20 uM after 24 hrs by spectrophotometric analysis relative to control; format: cell-based
[7] = Hemolytic activity against human erythrocytes assessed as amount of hemoglobin released from lysed cells up to 150 uM relative to control; format: ADME, cell-based, Erythrocyte; settings: read-out: Activity
[8] = biological target: T1, Tyrosinase (Mus musculus); experiment: Inhibition of TYR activity in mouse B16 cells 20 uM using L-dopa as substrate after 72 hrs relative to control; format: cell-based
B16 = experiment: Downregulation of TYR protein expression in mouse B16 cells after 72 hrs by Western blot analysis; format: functional, cell-based
[9] = Antioxidant activity assessed as DPPH free radical scavenging activity at 80 uM after 30 mins relative to control; format: functional
LAD2 [10] = experiment: as §1, with “0.125” for “0.25”; format: ADME; settings: lad2, 1.5 h, 125 µM

Activity (LAD2 [1]): 7.19%
Activity [3]: Active
Activity [4]: inactive
inhibition [6]: Active
inhibition [8]: 25.7%
Activity (LAD2 [10]): 3.87%
Compound: CC(C)[C@H](NC(=O)[C@H](CCCNC(=N)N)NC(=O)[C@H](Cc1ccccc1)NC(=O)[C@H](CS)NC(=O)[C@H](CCCNC(=N)N)NC(=O)[C@@H](N)[C@@H](C)O)C(=O)N[C@@H](CS)C(=O)N[C@@H](CO)C(=O)O (H-TRCFRVCS-OH)
Activity (Mus musculus): inactive
Activity (Cavia porcellus [2]): Active
Activity (Cavia porcellus [5]): Dose-dependent effect
hemolysis [7]: 1%
inhibition (B16): Active
Activity [9]: 97%
